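All cell lines were grown in 96-well plates and treated with compound for 48 hours. At the GI50, growth is halved.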 Calls of active or inactive are those of the source. Cut-off read from the data, not from the text of the source: active = GI50 up to about 1.1 µM and inactive = higher.
Tests used:
Assay in all cases: NCI tumour cell line growth inhibition, 48 h
K562 = test system: K562
SNB-78 = test system: SNB-78
CCRF-CEM = test system: CCRF-CEM
MDA-MB-231 = test system: MDA-MB-231
RPMI-8226 = test system: RPMI-8226
NCI-H460 = test system: NCI-H460
HT-29 = test system: HT-29
XF498 = test system: XF498
SK-MEL-28 = test system: SK-MEL-28
T47D = test system: T47D
UACC-62 = test system: UACC-62
SNB-75 = test system: SNB-75
SNB-19 = test system: SNB-19
KM-20L2 = test system: KM-20L2
Malme-3M = test system: Malme-3M
MCF7 = test system: MCF7
SK-MEL-5 = test system: SK-MEL-5
HCC 2998 = test system: HCC 2998
UO-31 = test system: UO-31
U-251 = test system: U-251
A549 = test system: A549
ACHN = test system: ACHN
M14 = test system: M14
TK-10 = test system: TK-10
HOP-62 = test system: HOP-62
OVCAR-4 = test system: OVCAR-4
CAKI-1 = test system: CAKI-1
RXF 393 = test system: RXF 393
IGROV-1 = test system: IGROV-1
HCT-116 = test system: HCT-116
SK-MEL-2 = test system: SK-MEL-2
MDA-MB-435 = test system: MDA-MB-435
Hs-578T = test system: Hs-578T
NCI-H522 = test system: NCI-H522
SR = test system: SR
LXFL 529 = test system: LXFL 529
NCI-H23 = test system: NCI-H23
MOLT-4 = test system: MOLT-4
BT-549 = test system: BT-549
UACC-257 = test system: UACC-257
RXF 631 = test system: RXF 631
SF-295 = test system: SF-295
NCI-H226 = test system: NCI-H226
OVCAR-8 = test system: OVCAR-8
KM12 = test system: KM12
A498 = test system: A498
M19-MEL = test system: M19-MEL
EKVX = test system: EKVX
OVCAR-5 = test system: OVCAR-5
SF-539 = test system: SF-539
DMS-114 = test system: DMS-114
MDA-N = test system: MDA-N
SW-620 = test system: SW-620
PC-3 = test system: PC-3
HL-60 = test system: HL-60
DMS-273 = test system: DMS-273
DLD-1 = test system: DLD-1
SF-268 = test system: SF-268
SK-OV-3 = test system: SK-OV-3
COLO 205 = test system: COLO 205
LOX IMVI = test system: LOX IMVI
SN12C = test system: SN12C
HOP-18 = test system: HOP-18
DU-145 = test system: DU-145
HOP-92 = test system: HOP-92
HCT-15 = test system: HCT-15
786-0 = test system: 786-0
OVCAR-3 = test system: OVCAR-3

CN(C)CCN1C(=O)c2cccc3cc([N+](=O)[O-])cc(c23)C1=O [MITONAFIDE] was tested, and the GI50 (K562) was 1.56 µM (inactive), the GI50 (SNB-78) was 2 µM (inactive) and the GI50 (CCRF-CEM) was 0.163 µM (active). For the same molecule, the GI50 (MDA-MB-231) was 1.31 µM (inactive), the GI50 (RPMI-8226) was 0.443 µM (active) and the GI50 (NCI-H460) was 0.0803 µM (active). The GI50 (HT-29) was 0.301 µM (active), the GI50 (XF498) was 0.303 µM (active) and the GI50 (SK-MEL-28) was 1.34 µM (inactive). For the same molecule, the GI50 (T47D) was 0.601 µM (active), the GI50 (UACC-62) was 0.247 µM (active) and the GI50 (SNB-75) was 0.194 µM (active). For the same molecule, the GI50 (SNB-19) was 0.25 µM (active), the GI50 (KM-20L2) was 0.405 µM (active) and the GI50 (Malme-3M) was 0.404 µM (active). The GI50 (MCF7) was 0.165 µM (active), the GI50 (SK-MEL-5) was 0.237 µM (active) and the GI50 (HCC 2998) was 1.11 µM (active). The GI50 (UO-31) was 0.248 µM (active), the GI50 (U-251) was 0.213 µM (active) and the GI50 (A549) was 0.0716 µM (active). For the same molecule, the GI50 (ACHN) was 0.0762 µM (active), the GI50 (M14) was 0.479 µM (active) and the GI50 (TK-10) was 2.13 µM (inactive). For the same molecule, the GI50 (HOP-62) was 0.146 µM (active), the GI50 (OVCAR-4) was 1.2 µM (inactive) and the GI50 (CAKI-1) was 0.153 µM (active). The GI50 (RXF 393) was 0.337 µM (active), the GI50 (IGROV-1) was 0.5 µM (active) and the GI50 (HCT-116) was 0.261 µM (active). For the same molecule, the GI50 (SK-MEL-2) was 1.37 µM (inactive), the GI50 (MDA-MB-435) was 1.75 µM (inactive) and the GI50 (Hs-578T) was 1.04 µM (active). The GI50 (NCI-H522) was 0.281 µM (active), the GI50 (SR) was 0.129 µM (active) and the GI50 (LXFL 529) was 0.682 µM (active). The GI50 (NCI-H23) was 0.308 µM (active), the GI50 (MOLT-4) was 0.0406 µM (active) and the GI50 (BT-549) was 0.904 µM (active). The GI50 (UACC-257) was 0.838 µM (active), the GI50 (RXF 631) was 0.171 µM (active) and the GI50 (SF-295) was 0.209 µM (active). The GI50 (NCI-H226) was 0.0789 µM (active), the GI50 (OVCAR-8) was 0.252 µM (active) and the GI50 (KM12) was 0.321 µM (active). The GI50 (A498) was 0.167 µM (active), the GI50 (M19-MEL) was 0.377 µM (active) and the GI50 (EKVX) was 0.624 µM (active). For the same molecule, the GI50 (OVCAR-5) was 0.762 µM (active), the GI50 (SF-539) was 0.155 µM (active) and the GI50 (DMS-114) was 0.223 µM (active). For the same molecule, the GI50 (MDA-N) was 1.49 µM (inactive), the GI50 (SW-620) was 0.17 µM (active) and the GI50 (PC-3) was 0.931 µM (active). For the same molecule, the GI50 (HL-60) was 0.0676 µM (active), the GI50 (DMS-273) was 0.0514 µM (active) and the GI50 (DLD-1) was 0.873 µM (active). For the same molecule, the GI50 (SF-268) was 0.324 µM (active), the GI50 (SK-OV-3) was 0.198 µM (active) and the GI50 (COLO 205) was 0.191 µM (active). The GI50 (LOX IMVI) was 0.192 µM (active), the GI50 (SN12C) was 0.179 µM (active) and the GI50 (HOP-18) was 0.652 µM (active). The GI50 (DU-145) was 0.286 µM (active), the GI50 (HOP-92) was 0.255 µM (active) and the GI50 (HCT-15) was 0.29 µM. The GI50 (786-0) was 0.195 µM (active) and the GI50 (OVCAR-3) was 1.37 µM (inactive).

Reference: ChEMBL document CHEMBL1201862, “PubChem BioAssay data set” (2004)
